Measured values published in ChEMBL document CHEMBL5584254, “Identification of N-(((1S,3R,5S)-adamantan-1-yl)methyl)-3-((4-chlorophenyl)sulfonyl)benzenesulfonamide as novel Nav1.8 inhibitor with analgesic profile” (Bioorg Med Chem Lett, 2024).
Active and inactive are the calls of the source.

Columns and labels:
[1] = test system: HEK293; assay: Binding affinity to Nav1.8 (unknown origin) expressed in HEK293 cells assessed as retention time by cell membrane chromatography analysis; assay type: cell membranes; conditions: Homo sapiens
[2] = test system: Mus musculus; assay: Analgesic activity in CFA-induced inflammatory pain mouse model assessed as effect on duration of pain relief by measuring delta AUC at 10 mM, ip by von frey test; assay type: functional, organism-based
[3] = test system: Mus musculus; assay: Analgesic activity in CFA-induced inflammatory pain mouse model assessed as increase in mechanical pain threshold at 10 mM, ip measured upto 5 hrs by von frey test; assay type: functional, organism-based
[4] = species on record: Homo sapiens; assay: Inhibition of Nav1.8 (unknown origin) at 10 uM under resting state by whole-cell patch clamp analysis relative to control
[5] = test system: Mus musculus; assay: Analgesic activity in CFA-induced inflammatory pain mouse model assessed as effect on intensity of pain relief by measuring delta AUC at 10 mM, ip by von frey test; assay type: functional, organism-based
[6] = test system: Mus musculus; assay: Analgesic activity in CFA-induced inflammatory pain mouse model assessed as inhibition of mechanical hyperalgesia by measuring delta AUC at 10 mM, ip by von frey test; assay type: functional, organism-based
[7] = test system: Nav1.8 (SCN10A); assay: Inhibition of Nav1.8 (unknown origin) at 10 uM under half […] state by whole-cell patch clamp analysis relative to control; conditions: human
[8] = test system: Mus musculus; assay: Analgesic activity in CFA-induced inflammatory pain mouse model assessed as increase in mechanical pain threshold at 10 mM, ip measured within 5 hrs by von frey test; assay type: functional, organism-based

Cc1cc(OCC(=O)Nc2ccc(C(C)(C)C)cc2)c2c3c(c(=O)oc2c1)CCC3
Retention time [1]: 0.4 min

O=C(Cc1cccc2ccccc12)NN1C(=O)C2C3C=CC(C3)C2C1=O (stereo not given)
Retention time [1]: 1.9 min

O=S(=O)(NCC12CC3CC(CC(C3)C1)C2)c1cccc(S(=O)(=O)c2ccc(Cl)cc2)c1
Activity [2]: Active | Retention time [1]: 56 min | Activity [3]: Active | inhibition [4]: 14.3% | Activity [5]: Active | Activity [6]: Active | inhibition at 10 µM [7]: 63.8% | Activity [8]: Active

Cc1ccc(C)c(Cn2cccc2CNC(=O)NC23CC4CC(CC(C4)C2)C3)c1
Retention time [1]: 0.4 min

CC1Oc2ccccc2CC1/C=C1/Oc2cc(OC(=O)c3ccc4c(c3)OCO4)ccc2C1=O (stereo not given)
Retention time [1]: 0.4 min

O=S(=O)(NCC12CC3CC(CC(C3)C1)C2)c1ccc(Cl)c2ccccc12
Retention time [1]: 0.4 min

COc1ccc(/C=N/NC(=O)NC23CC4CC(C2)CC(c2ccc(C)cc2)(C4)C3)cc1
Retention time [1]: 0.4 min

CN1c2ccc(F)cc2C(C)(C)C12C=Cc1cc([N+](=O)[O-])ccc1S2 (stereo not given)
Retention time [1]: 0.4 min

Cc1ccccc1C1CC(=O)C2=C(C1)NC(=O)C(CC(=O)Nc1cccc(Cl)c1C)C2 (stereo not given)
Activity [2]: Active | Retention time [1]: 5.76 min | Activity [3]: Active | inhibition [4]: 6.49% | Activity [5]: Active | Activity [6]: Active | inhibition at 10 µM [7]: 11.1% | Activity [8]: Active

O=C(Cc1ccccc1)N/N=C/c1c2ccccc2cc2ccccc12
Retention time [1]: 0.4 min

Cc1ccc(CS(=O)(=O)c2cn(CC(=O)Nc3ccc(F)cc3F)c3ccccc23)cc1
Retention time [1]: 14.7 min | Activity [3]: Active

COc1cc(NC(=O)c2ccc(-c3ccc(Cl)cc3)o2)cc(OC)c1
Retention time [1]: 120 min | inhibition [4]: 62.1%

COc1cccc(C2C3=C(CC4=C2C(=O)CC(C)(C)C4)CC(C)(C)CC3=O)c1OCC(=O)O
Retention time [1]: 1.2 min

CCC1(C)Oc2ccc(NS(=O)(=O)c3ccc4c(c3)Cc3ccccc3-4)cc2O1 (stereo not given)
Retention time [1]: 0.4 min

Cc1cc2oc(=O)cc(C)c2c(O)c1C1=NNC(c2ccc3c(c2)OCO3)C1 (stereo not given)
Retention time [1]: 0.4 min

O=[N+]([O-])c1cccc(C2Oc3ccccc3C3CC(c4ccc(F)cc4)=NN32)c1 (stereo not given)
Retention time [1]: 0.4 min

Cc1cc(F)ccc1Oc1cc(C(F)(F)F)ccc1C(=O)Nc1cc[nH]c(=O)c1
Retention time [1]: 8.56 min | Activity [3]: Active | Activity [8]: inactive
